Values quoted from earlier work as cited in publication PMC3689924 (Pharmacology, 2012).

Conditions: cited from earlier work

SMILES	increase in AUC with increasing dose
COC(=O)c1cnc2n1CCc1ccccc1C2=C1CCN(CCc2ccc(OCc3ccc4ccccc4n3)cc2)CC1 [laniquidar]	greater than proportional increases in AUC
O[C@@H](COc1cccc2ncccc12)CN1CCN([C@@H]2c3ccccc3[C@@H]3[C@H](c4ccccc42)C3(F)F)CC1 [zosuquidar]	greater than proportional increases in AUC
